Some results are limits rather than exact numbers.

For assay [1], the system named is HuH-7 hepatocellular carcinoma cells. As to the kind of experiment: Methylene Blue Staining Proliferation Assay (MBS). Conditions: Homo sapiens, Huh-7, 72 h, read-out: HUH7 proliferation (nM) MBS.
For a further assay, the target named is FGFR1 (407-822) (Homo sapiens (Human), UniProt P11362). As to the kind of experiment: In vitro biochemical assay for FGFR1.
A further assay has as its target FGFR3 (411-806) (Homo sapiens (Human), UniProt P22607). As to the kind of experiment: In vitro biochemical assay for FGFR3.
In assay [2] the target is FGFR4 (GST-FGFR4(388-802)) (Homo sapiens (Human), UniProt P22455). Put plainly: In-vitro biochemical kinase assay for FGFR4 (Caliper microfluidic mobility shift). As to conditions: read-out: Biochemical FGFR4 IC50.
Chain of FGFR4 (GST-FGFR4(388-802)) (P22455 388-802): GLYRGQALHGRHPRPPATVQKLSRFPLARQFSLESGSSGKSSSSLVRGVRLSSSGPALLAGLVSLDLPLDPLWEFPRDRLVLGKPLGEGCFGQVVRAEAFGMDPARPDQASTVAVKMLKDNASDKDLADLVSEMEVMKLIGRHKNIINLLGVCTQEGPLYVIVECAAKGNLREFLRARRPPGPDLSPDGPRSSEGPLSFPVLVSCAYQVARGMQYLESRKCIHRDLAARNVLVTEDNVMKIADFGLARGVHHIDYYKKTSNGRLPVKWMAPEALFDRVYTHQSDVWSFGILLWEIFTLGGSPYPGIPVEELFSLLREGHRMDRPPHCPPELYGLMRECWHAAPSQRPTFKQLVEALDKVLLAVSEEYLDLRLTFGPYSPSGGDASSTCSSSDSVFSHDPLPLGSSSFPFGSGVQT
The next assay concerns the target Tel-FGFR4 (Homo sapiens (Human), UniProt P22455). As to the kind of experiment: In vitro cellular kinase assay for FGFR4 (BaF3-Tel-FGFR4 cells, MSD capture ELISA of tyrosine phosphorylation). Type of assay: cell-based. As to conditions: BaF3-Tel-FGFR4 cells, 1 hour incubation; read-out: Cellular BaF3 FGFR4 IC50.
The target of another assay is FGFR2 (406-821) (Homo sapiens (Human), UniProt P21802). As to the kind of experiment: In vitro biochemical assay for FGFR2.
Chain of FGFR2 (406-821) (P21802 406-821): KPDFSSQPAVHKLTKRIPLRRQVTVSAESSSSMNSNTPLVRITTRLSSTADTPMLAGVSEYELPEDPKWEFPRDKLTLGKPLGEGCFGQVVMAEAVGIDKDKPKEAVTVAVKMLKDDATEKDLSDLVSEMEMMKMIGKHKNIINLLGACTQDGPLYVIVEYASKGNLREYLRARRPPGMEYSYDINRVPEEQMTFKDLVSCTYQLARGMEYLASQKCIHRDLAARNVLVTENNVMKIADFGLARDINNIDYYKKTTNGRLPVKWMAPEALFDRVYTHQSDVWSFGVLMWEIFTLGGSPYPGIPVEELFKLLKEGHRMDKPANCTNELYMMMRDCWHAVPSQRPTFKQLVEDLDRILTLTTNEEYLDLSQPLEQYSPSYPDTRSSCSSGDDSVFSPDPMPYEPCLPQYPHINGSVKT
For assay [3], the system named is HuH-7 hepatocellular carcinoma cells. As to the kind of experiment: CellTiter Glo (CTG) Assay. As to conditions: Homo sapiens, Huh-7, 72 h, read-out: HUH7 proliferation (nM) CTG.

Chain of FGFR3 (411-806) (P22607 411-806): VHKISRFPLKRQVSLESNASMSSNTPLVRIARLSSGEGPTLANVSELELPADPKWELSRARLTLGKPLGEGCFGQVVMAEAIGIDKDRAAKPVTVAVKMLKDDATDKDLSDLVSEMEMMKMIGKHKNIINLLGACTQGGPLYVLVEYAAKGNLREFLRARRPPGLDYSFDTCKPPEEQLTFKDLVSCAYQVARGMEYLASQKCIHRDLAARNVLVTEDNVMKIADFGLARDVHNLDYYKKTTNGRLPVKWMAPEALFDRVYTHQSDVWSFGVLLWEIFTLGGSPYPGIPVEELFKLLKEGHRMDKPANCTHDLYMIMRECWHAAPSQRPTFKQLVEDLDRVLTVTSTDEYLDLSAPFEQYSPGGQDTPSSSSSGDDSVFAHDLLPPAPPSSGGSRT
Chain of Tel-FGFR4 (P22455 other isoform, or with tags, fused parts or gaps): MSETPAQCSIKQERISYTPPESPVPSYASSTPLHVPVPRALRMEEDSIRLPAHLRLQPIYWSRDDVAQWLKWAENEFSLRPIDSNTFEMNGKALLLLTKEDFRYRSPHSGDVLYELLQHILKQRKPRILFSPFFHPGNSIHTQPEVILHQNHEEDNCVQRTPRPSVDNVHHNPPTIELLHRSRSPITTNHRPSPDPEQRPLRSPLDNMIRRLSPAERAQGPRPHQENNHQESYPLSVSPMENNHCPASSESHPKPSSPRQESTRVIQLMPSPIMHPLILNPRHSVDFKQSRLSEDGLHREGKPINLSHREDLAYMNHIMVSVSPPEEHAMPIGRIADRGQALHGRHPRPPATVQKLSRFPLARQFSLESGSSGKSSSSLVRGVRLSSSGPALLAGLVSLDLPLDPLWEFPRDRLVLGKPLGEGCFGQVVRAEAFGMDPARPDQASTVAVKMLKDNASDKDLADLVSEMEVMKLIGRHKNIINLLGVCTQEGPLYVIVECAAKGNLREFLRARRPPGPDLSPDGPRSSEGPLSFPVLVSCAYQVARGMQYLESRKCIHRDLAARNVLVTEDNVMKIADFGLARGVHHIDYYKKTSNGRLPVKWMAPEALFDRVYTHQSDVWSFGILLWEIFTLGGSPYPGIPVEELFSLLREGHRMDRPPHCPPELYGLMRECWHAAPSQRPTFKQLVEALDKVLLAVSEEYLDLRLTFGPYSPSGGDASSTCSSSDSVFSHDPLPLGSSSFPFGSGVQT
Chain of FGFR1 (407-822) (P11362 407-822): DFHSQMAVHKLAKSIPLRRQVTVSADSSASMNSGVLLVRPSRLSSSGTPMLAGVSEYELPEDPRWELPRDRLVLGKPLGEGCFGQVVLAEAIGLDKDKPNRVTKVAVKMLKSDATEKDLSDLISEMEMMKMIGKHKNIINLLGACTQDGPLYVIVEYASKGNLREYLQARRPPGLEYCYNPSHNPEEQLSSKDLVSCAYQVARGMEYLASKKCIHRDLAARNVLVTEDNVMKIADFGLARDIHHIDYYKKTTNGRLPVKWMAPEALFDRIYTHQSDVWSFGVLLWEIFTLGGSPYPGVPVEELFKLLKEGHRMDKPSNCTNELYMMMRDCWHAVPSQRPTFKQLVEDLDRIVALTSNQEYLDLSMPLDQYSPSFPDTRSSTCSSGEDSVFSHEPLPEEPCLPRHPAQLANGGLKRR

As to `N#Cc1cnc(NC(=O)N2CCCc3cc(CO)c(C=O)nc32)cc1OC1CN2CCC1CC2` (racemic) [Example 82, N-(5-cyano-4-(quinuclidin-3-yloxy)pyridin-2-yl)-7-formyl-6-(hydroxymethyl)-3,4-dihydro-1,8-naphthyridine-1(2H)-carboxamide], the IC50 in assay [1] is 2010 nM; against FGFR1 (407-822) it was above 10000 nM; against FGFR3 (411-806), above 10000 nM; in assay [2] it was 56 nM; on Tel-FGFR4, 83.5 nM; against FGFR2 (406-821) it was above 10000 nM.

Regarding `O=Cc1ccc2c(n1)N(C(=O)Nc1ccc(Cl)cn1)CCC2` [Example 4, N-(5-chloropyridin-2-yl)-7-formyl-3,4-dihydro-1,8-naphthyridine-1(2H)-carboxamide], the IC50 in assay [1] is above 3000 nM.

Regarding `CN1CCC(COc2cc(NC(=O)N3CCCc4cc(CO)c(C=O)nc43)ncc2C#N)CC1` [Example 78, N-(5-cyano-4-((1-methylpiperidin-4-yl)methoxy)pyridin-2-yl)-7-formyl-6-(hydroxymethyl)-3,4-dihydro-1,8-naphthyridine-1(2H)-carboxamide], the IC50 was 279 nM in assay [1]; above 10000 nM at FGFR1 (407-822); above 10000 nM on FGFR3 (411-806); 20 nM in assay [2]; 17 nM at Tel-FGFR4; above 10000 nM against FGFR2 (406-821).

Take `COCCNc1cc(NC(=O)N2CCCc3cc(CN4CCN(C)CC4=O)c(C=O)nc32)ncc1C#N` [Example 83, N-(5-cyano-4-((2-methoxyethyl)amino)pyridin-2-yl)-7-formyl-6-((4-methyl-2-oxopiperazin-1-yl)methyl)-3,4-dihydro-1,8-naphthyridine-1(2H)-carboxamide]: the IC50 in assay [1] was 12 nM; in assay [3] it was 60.9 nM.

Consider `COC[C@@H](C)Oc1cc(NC(=O)N2CCCc3cc(CN4C(=O)OC[C@@H]4C)c(C=O)nc32)ncc1C#N` [Example 115, N-(5-cyano-4-(((R)-1-methoxypropan-2-yl)oxy)pyridin-2-yl)-7-formyl-6-(((S)-4-methyl-2-oxooxazolidin-3-yl)methyl)-3,4-dihydro-1,8-naphthyridine-1(2H)-carboxamide], for which the IC50 in assay [1] turned out to be 29 nM; in assay [3], 17.5 nM; in assay [2] it was 0.2 nM; on Tel-FGFR4 it was 3.9 nM.

For the molecule `CC(=O)N1CCN(Cc2cc3c(nc2C=O)N(C(=O)Nc2cc(OC(C)C)c(C#N)cn2)CCC3)CC1` [Example 134, 6-((4-acetylpiperazin-1-yl)methyl)-N-(5-cyano-4-isopropoxypyridin-2-yl)-7-formyl-3,4-dihydro-1,8-naphthyridine-1(2H)-carboxamide], the IC50 in assay [3] is 450 nM; at FGFR1 (407-822), above 10000 nM; against FGFR3 (411-806), above 10000 nM; in assay [2] it was 1.9 nM; at Tel-FGFR4 it was 20.5 nM; against FGFR2 (406-821), above 10000 nM.

In the case of `CC(C)Oc1cc(NC(=O)N2CCCc3cc(CN(C)C(=O)CO)c(C=O)nc32)ncc1C#N` [Example 141, N-(5-cyano-4-isopropoxypyridin-2-yl)-7-formyl-6-((2-hydroxy-N-methylacetamido)methyl)-3,4-dihydro-1,8-naphthyridine-1(2H)-carboxamide], the IC50 is 43 nM in assay [1]; 36 nM in assay [3]; above 10000 nM at FGFR1 (407-822); above 10000 nM against FGFR3 (411-806); 3.9 nM at Tel-FGFR4; above 10000 nM at FGFR2 (406-821).

As to `COCCNc1cc(NC(=O)N2CCCc3cc(CN4CCSCC4=O)c(C=O)nc32)ncc1C#N` [Example 149, N-(5-cyano-4-((2-methoxyethyl)amino)pyridin-2-yl)-7-formyl-6-((3-oxothiomorpholino)methyl)-3,4-dihydro-1,8-naphthyridine-1(2H)-carboxamide], the IC50 in assay [3] is 77.5 nM; on FGFR1 (407-822), above 10000 nM; against FGFR3 (411-806), above 10000 nM; in assay [2], 0.1 nM; on Tel-FGFR4 it was 5.3 nM; against FGFR2 (406-821) it was above 10000 nM.

As to `COCCNc1cc(NC(=O)N2CCCc3cc(CN4CCS(=O)(=O)CC4=O)c(C=O)nc32)ncc1C#N` [Example 150, N-(5-cyano-4-((2-methoxyethyl)amino)pyridin-2-yl)-6-((1,1-dioxido-3-oxothiomorpholino)methyl)-7-formyl-3,4-dihydro-1,8-naphthyridine-1(2H)-carboxamide], the IC50 in assay [3] is 45.5 nM; on FGFR1 (407-822) it was above 10000 nM; against FGFR3 (411-806), above 10000 nM; in assay [2] it was 1.2 nM; at Tel-FGFR4, 5.8 nM; against FGFR2 (406-821), above 10000 nM.

As to `CN1CCN(Cc2cc3c(nc2C=O)N(C(=O)Nc2cc(NCCO)c(C#N)cn2)CCC3)C(=O)C1` [Example 197, N-(5-cyano-4-((2-hydroxyethyl)amino)pyridin-2-yl)-7-formyl-6-((4-methyl-2-oxopiperazin-1-yl)methyl)-3,4-dihydro-1,8-naphthyridine-1(2H)-carboxamide], the IC50 in assay [3] was 146 nM; against FGFR1 (407-822) it was above 10000 nM; on FGFR3 (411-806), above 10000 nM; in assay [2] it was 1.2 nM; on Tel-FGFR4, 19.1 nM; on FGFR2 (406-821) it was above 10000 nM.

As for `COCCOc1cc(NC(=O)N2CCCCc3ccc(C=O)nc32)ncc1C#N` [Example 202, N-(5-cyano-4-(2-methoxyethoxyl)pyridin-2-yl)-2-formyl-7,8-dihydro-5H-pyrido[2,3-b]azepine-9(6H)-carboxamide], the IC50 in assay [3] was above 3000 nM; against FGFR1 (407-822), above 10000 nM; against FGFR3 (411-806), above 10000 nM; against FGFR2 (406-821) it was above 10000 nM.

On to `COC[C@@H](C)Oc1cc(NC(=O)N2CCCc3cc(CN4CCN(C)CC4=O)c(C=O)nc32)ncc1C#N` [Example 205, (R)-N-(5-cyano-4-((1-methoxypropan-2-yl)oxy)pyridin-2-yl)-7-formyl-6-((4-methyl-2-oxopiperazin-1-yl)methyl)-3,4-dihydro-1,8-naphthyridine-1(2H)-carboxamide], for which the IC50 in assay [1] is 14 nM; against FGFR1 (407-822) it was above 10000 nM; at FGFR3 (411-806) it was above 10000 nM; against FGFR2 (406-821), above 10000 nM.

`CC(C)n1cnc2cnc(NC(=O)N3CCCc4cc(CN5CCN(C)CC5=O)c(C=O)nc43)cc21` [Example 216, 7-formyl-N-(1-isopropyl-1H-imidazo[4,5-c]pyridin-6-yl)-6-((4-methyl-2-oxopiperazin-1-yl)methyl)-3,4-dihydro-1,8-naphthyridine-1(2H)-carboxamide]: the IC50 was above 1000 nM in assay [1]; above 3000 nM in assay [3]; above 10000 nM at FGFR1 (407-822); above 10000 nM against FGFR3 (411-806); above 10000 nM against FGFR2 (406-821).

With `COCCNc1cc(NC(=O)N2c3nc(C=O)c(CN4CCN(C)CC4=O)cc3CC[C@@H]2C)ncc1C#N` [Example 228, (S)-N-(5-cyano-4-((2-methoxyethyl)amino)pyridin-2-yl)-7-formyl-2-methyl-6-((4-methyl-2-oxopiperazin-1-yl)methyl)-3,4-dihydro-1,8-naphthyridine-1(2H)-carboxamide], the IC50 in assay [3] was 62 nM; on FGFR1 (407-822) it was above 10000 nM; at FGFR3 (411-806), above 10000 nM; in assay [2], 0.6 nM; on Tel-FGFR4, 6.2 nM; against FGFR2 (406-821) it was above 10000 nM.

Turning to `CN1CCN(Cc2cc3c(nc2C=O)N(C(=O)Nc2cc(NC45CC(C4)C5)c(C#N)cn2)CCC3)C(=O)C1` [Example 237, N-(4-(bicyclo[1.1.1]pentan-1-ylamino)-5-cyanopyridin-2-yl)-7-formyl-6-((4-methyl-2-oxopiperazin-1-yl)methyl)-3,4-dihydro-1,8-naphthyridine-1(2H)-carboxamide], the IC50 in assay [3] was 18 nM; at FGFR1 (407-822), above 10000 nM; against FGFR3 (411-806), above 10000 nM; in assay [2] it was 1.9 nM; on Tel-FGFR4 it was 19 nM; against FGFR2 (406-821), above 10000 nM.

`COCCNc1cc(NC(=O)N2CCCc3cc(-c4cnn(C)c4)c(C=O)nc32)ncc1C#N` [Example 251, N-(5-cyano-4-((2-methoxyethyl)amino)pyridin-2-yl)-7-formyl-6-(1-methyl-1H-pyrazol-4-yl)-3,4-dihydro-1,8-naphthyridine-1(2H)-carboxamide]: the IC50 in assay [1] is 264 nM; in assay [3], 1340 nM; on Tel-FGFR4, 12.9 nM.

On to `COCCNc1cc(NC(=O)N2CCCc3cc(-c4cnc(C)s4)c(C=O)nc32)ncc1C#N` [Example 252, N-(5-cyano-4-((2-methoxyethyl)amino)pyridin-2-yl)-7-formyl-6-(2-methylthiazol-5-yl)-3,4-dihydro-1,8-naphthyridine-1(2H)-carboxamide], for which the IC50 was 395 nM in assay [3], above 10000 nM at FGFR1 (407-822), above 10000 nM on FGFR3 (411-806) and above 10000 nM on FGFR2 (406-821).

`CC(C)Oc1cc(NC(=O)N2CCCc3cc(C4CCNCC4)c(C=O)nc32)ncc1C#N` [Example 265, N-(5-cyano-4-isopropoxypyridin-2-yl)-7-formyl-6-(piperidin-4-yl)-3,4-dihydro-1,8-naphthyridine-1(2H)-carboxamide]: the IC50 in assay [3] was 404 nM; on FGFR1 (407-822), above 10000 nM; against FGFR3 (411-806), above 10000 nM; in assay [2], 3.5 nM; at Tel-FGFR4, 87 nM; against FGFR2 (406-821) it was above 10000 nM.

For the origin of these results see US9266883B2, “Ring-fused bicyclic pyridyl derivatives as FGFR4 inhibitors” (Novartis AG, priority 2013, dated 2016).
